Assay results taken from patent publication US4954483A, “Carboxylic acid ester derivatives or deglucoteicoplanin” (Gruppo Lepetit, S.p.A., priority 1984, dated 1990).

How the values were obtained:
S. aureus TOUR = assay: MIC, standard agar-dilution test; assay type: cell-based
Description: Isosensitest broth (Oxoid) and Todd-Hewitt broth (Difco) are used for growing staphylococci and streptococci, respectively. […]

E. coli SKF 12140 = assay: MIC, standard agar-dilution test; assay type: cell-based; conditions: inoculum about 10^4 CFU/ml
Protocol: (§1) Isosensitest broth (Oxoid) and Todd-Hewitt broth (Difco) are used for growing staphylococci and streptococci, respectively. Broth cultures are diluted so that the final inoculum is about 10^4 colony forming units/ml (CFU/ml).

S. faecalis ATCC 7080 = assay: MIC, standard agar-dilution test; assay type: cell-based; conditions: inoculum about 10^4 CFU/ml
Protocol: as §1

S. pneumoniae UC 41 = assay: MIC, standard agar-dilution test; assay type: cell-based; conditions: inoculum about 10^4 CFU/ml
Protocol: as §1

S. aureus ATCC 6538 = assay: MIC, standard agar-dilution test; assay type: cell-based; conditions: inoculum about 10^4 CFU/ml, 18-24 h at 37° C.
Protocol: as §1

[1] = tested on: S. pyogenes C 203 SKF 13400; assay: MIC, standard agar-dilution test; assay type: cell-based; conditions: Todd-Hewitt broth, inoculum about 10^4 CFU/ml
Protocol: as §1

[2] = tested on: S. epidermidis ATCC 12228; assay: MIC, standard agar-dilution test; assay type: cell-based; conditions: inoculum about 10^4 CFU/ml
Protocol: as §1

[3] = Potentiometric titration in methylcellosolve/water 4:1 (pKa, pH1/2); assay type: physicochemical; conditions: methylcellosolve/water 4:1 (v/v), excess 0.01 M HCl, titrated with 0.01 M NaOH
Protocol: ^(c) the samples are dissolved in methylcellosolve ®/water 4:1
(v/v), an excess of 0.01 M hydrogen chloride in the same mixture is added
thereto and the resulting solution is titrated with 0.01 M NaOH in the […]

[4] = Solubility characteristics
[5] = S. aureus TOUR + 30% bovine serum

| Compound | MIC (S. aureus TOUR; S. aureus TOUR (10^3 CFU/ml)) | MIC (S. aureus TOUR; S. aureus TOUR (10^6 CFU/ml)) | MIC (S. aureus TOUR; [5]) | MIC (E. coli SKF 12140) | MIC (S. faecalis ATCC 7080) | MIC (S. pneumoniae UC 41) | MIC (S. aureus ATCC 6538) | MIC [1] | MIC [2] | pKa [3] | also measured |
| --- | --- | --- | --- | --- | --- | --- | --- | --- | --- | --- | --- |
| deglucoteicoplanin benzyl ester, hydrochloride [Example 3] | 0.4 µg/mL | 0.4 µg/mL | 0.8 µg/mL | 12.5 µg/mL | 0.4 µg/mL | 0.2 µg/mL | 0.4 µg/mL | 0.05 µg/mL | 0.1 µg/mL | 6.67 |  |
| CC(=O)N[C@@H]1[C@@H](O[C@H]2c3ccc(c(Cl)c3)Oc3cc4cc(c3O)Oc3ccc(cc3Cl)C[C@@H]3NC(=O)[C@@H](N)c5ccc(O)c(c5)Oc5cc(O)cc(c5)[C@@H](NC3=O)C(=O)N[C@@H]4C(=O)N[C@@H]3C(=O)N[C@H]2C(=O)N[C@@H](C(=O)O)c2cc(O)cc(O)c2-c2cc3ccc2O)O[C@@H](CO)[C@H](O)[C@H]1O (stereo in doubt) [Antibiotic L 17046] |  |  |  |  |  |  |  |  |  |  | solubility in dimethylformamide, dimethylsulfoxide, propyleneglycol and methylcellosolve [4]: freely soluble; solubility in methanol [4]: slightly soluble; solubility in water ([4]; water at pH>8.0): freely soluble |
| N[C@H]1C(=O)N[C@@H]2Cc3ccc(c(Cl)c3)Oc3cc4cc(c3O)Oc3ccc(cc3Cl)[C@@H](O)[C@@H]3NC(=O)[C@H](NC(=O)[C@@H]4NC(=O)[C@@H](NC2=O)c2cc(O)cc(c2)Oc2cc1ccc2O)c1ccc(O)c(c1)-c1c(O)cc(O)cc1[C@@H](C(=O)O)NC3=O [Antibiotic L 17392, deglucoteicoplanin] |  |  |  |  |  |  |  |  |  |  | solubility in aqueous methanol, ethanol and acetone [4]: soluble; solubility in ethyl alcohol and dimethylformamide [4]: slightly soluble; solubility in water ([4]; water at a pH higher than 9): soluble |
| deglucoteicoplanin n-octyl ester, hydrochloride [Example 2] | 0.2 µg/mL | 0.8 µg/mL | 0.8 µg/mL | > 100 µg/mL | 0.4 µg/mL | 0.05 µg/mL | 0.2 µg/mL | 0.05 µg/mL | 0.1 µg/mL | 6.82 |  |
| deglucoteicoplanin n-butyl ester, hydrochloride [Example 1] | 0.1 µg/mL | 0.4 µg/mL | 0.4 µg/mL | 50 µg/mL | 0.2 µg/mL | 0.1 µg/mL | 0.05 µg/mL | 0.1 µg/mL | 0.05 µg/mL | 6.57 |  |
| N-benzyloxycarbonyl deglucoteicoplanin [Example 4] |  |  |  |  |  |  |  |  |  | 5.02 |  |
| deglucoteicoplanin 4-chloro-butyl ester [Example 9] |  |  |  |  |  |  |  |  |  | 6.60 |  |
